The values below come from patent publication US20240243327A1, “NAPHTHALENE DIIMIDE COMPOUND AND REDOX FLOW BATTERY CONTAINING THE SAME” (Korea Advanced Institute of Science and Technology, priority 2023, published 2024).

Read-outs that look alike come from different tables or passages of the source.

The nature of the data set: Analysis of solubility (UV-Vis calibration at 361 nm, saturated solution at room temperature). The data set is classed as physicochemical. The settings on record: for solubility: thermodynamic from solid. On the procedure:
First, the compound was dissolved in 2 mL of deionized water (DI water), and then the UV-Vis spectrum of the solution was measured. 1 mL of the solution was taken out, 1 mL of deionized water was added to reduce the concentration by half, and then the UV-Vis spectrum was measured. This process was repeated several times. A calibration curve was drawn using λ=361 nm (π-π* transition) from the UV-Vis spectrum. At this time, a UV-Vis spectrum of deionized water was used for baseline measurement. […] The solution was filtered, and then the total volume of the solution was recorded. […] of the filtrate was taken, and then deionized water was added to bring the volume to 2 mL. Thereafter, 1 mL of the solution was taken and fresh deionized water was added to dilute the solution to a volume of 2 mL. The UV-Vis spectrum was recorded until the absorbance at λ=361 nm was smaller than 1 a.u. The linear equation of the calibration curve was used to calculate the concentration of the solution, and the molarity equation was used to estimate the maximum solubility of the compound.

In the case of `CN1C(=O)c2ccc3c4c(ccc(c24)C1=O)C(=O)N(C)C3=O` [Comparative Example 1, 2,7-dimethylbenzo [lmn] [3,8] phenanthroline-1,3,6,8 (2H,7H) -tetraone], under “deionized water, room temperature, result in words”, the solubility in water entry is on record as “substantially insoluble in water”.
On to `O=C(O)CN1C(=O)c2ccc3c4c(ccc(c24)C1=O)C(=O)N(CC(=O)O)C3=O` [Comparative Example 2, 2,2′-(1,3,6,8-tetraoxo-1,3,6,8-tetrahydrobenzo [lmn] [3,8]phenanthroline-2,7-diyl)diacetate Potassium], for which the solubility (saline or isotonic, 1 M KCl solution as printed, read-out: solubility in the 1 M KCl solution) was approximately 25 mM.
As to `C[N+](C)(C)CCC[N+](C)(C)CCCN1C(=O)c2ccc3c4c(ccc(c24)C1=O)C(=O)N(CCC[N+](C)(C)CCC[N+](C)(C)C)C3=O` [Example 1], the solubility was approximately 1200 mM (1.5 M KCl aqueous solution, saline or isotonic, KCl aqueous solution (method: 1.5 M KCl), room temperature, read-out: solubility in the KCl solution) and approximately 1500 mM (deionized water, room temperature, read-out: solubility in water).
